Measured values as given in the supplement of paper PMC10307832.

Tests used:
Assay in all cases: relative viability (nuclei count vs DMSO), 5 days (fraction); higher = more cells survive
[1] = tested on: PC-14
Outline: (§1)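 Medians of duplicate plates are given as relative viability. That measure is the nuclei count in treated wells divided by the count in vehicle wells. Counts were taken on 4× images of lung cancer cell lines in 1536-well plates, 5 days after pin-tool dosing the day after seeding with one drug alone or a fixed anchor-drug dose plus five library-drug doses (not always all listed) in √10 steps.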

[2] = tested on: ChaGo-K-1
Outline: as §1

[3] = tested on: NCI-H2170
Outline: as §1

[4] = tested on: NCI-H647
Outline: as §1

[5] = tested on: HOP-62
Outline: as §1

[6] = tested on: RERF-LC-KJ
Outline: as §1

[7] = tested on: BEN
Outline: as §1

[8] = tested on: LXF-289
Outline: as §1

[9] = tested on: NCI-H441
Outline: as §1

[10] = tested on: LK-2
Outline: as §1

[11] = tested on: SK-MES-1
Outline: as §1

[12] = tested on: NCI-H1993
Outline: as §1

[13] = tested on: NCI-H1355
Outline: as §1

[14] = tested on: NCI-H1944
Outline: as §1

[15] = tested on: NCI-H727
Outline: as §1

[16] = tested on: EKVX
Outline: as §1

[17] = tested on: NCI-H661
Outline: as §1

[18] = tested on: NCI-H1437
Outline: as §1

[19] = tested on: NCI-H2126
Outline: as §1

[20] = tested on: HCC-827
Outline: as §1

[21] = tested on: LOU-NH91
Outline: as §1

[22] = tested on: LCLC-103H
Outline: as §1

[23] = tested on: NCI-H1666
Outline: as §1

CN1CCN(CCOc2cc(OC3CCOCC3)c3c(Nc4c(Cl)ccc5c4OCO5)ncnc3c2)CC1 [Saracatinib] + O=C(c1cc(Cc2n[nH]c(=O)c3ccccc23)ccc1F)N1CCN(C(=O)C2CC2)CC1 [Olaparib] (partner 8 µM)
relative viability ([1]; first compound 0.02 µM): 0.263
relative viability ([1]; first compound 0.2 µM): 0.261
relative viability ([1]; first compound 0.6325 µM): 0.201
relative viability ([1]; first compound 2 µM): 0.117
relative viability ([2]; first compound 0.02 µM): 0.423
relative viability ([2]; first compound 0.2 µM): 0.28
relative viability ([2]; first compound 0.6325 µM): 0.413
relative viability ([2]; first compound 2 µM): 0.449
relative viability ([3]; first compound 0.02 µM): 0.597
relative viability ([3]; first compound 0.2 µM): 0.539
relative viability ([3]; first compound 0.6325 µM): 0.558
relative viability ([3]; first compound 2 µM): 0.524
relative viability ([4]; first compound 0.02 µM): 0.574
relative viability ([4]; first compound 0.2 µM): 0.539
relative viability ([4]; first compound 0.6325 µM): 0.406
relative viability ([4]; first compound 2 µM): 0.364
relative viability ([5]; first compound 0.02 µM): 0.38
relative viability ([5]; first compound 0.2 µM): 0.417
relative viability ([5]; first compound 0.6325 µM): 0.204
relative viability ([5]; first compound 2 µM): 0.39
relative viability ([6]; first compound 0.02 µM): 1.09
relative viability ([6]; first compound 0.2 µM): 0.841
relative viability ([6]; first compound 0.6325 µM): 0.9
relative viability ([6]; first compound 2 µM): 0.977
relative viability ([7]; first compound 0.02 µM): 1.15
relative viability ([7]; first compound 0.2 µM): 0.922
relative viability ([7]; first compound 0.6325 µM): 1.15
relative viability ([7]; first compound 2 µM): 0.794
relative viability ([8]; first compound 0.02 µM): 1.07
relative viability ([8]; first compound 0.2 µM): 0.916
relative viability ([8]; first compound 0.6325 µM): 1.09
relative viability ([8]; first compound 2 µM): 1.04
relative viability ([9]; first compound 0.02 µM): 0.57
relative viability ([9]; first compound 0.2 µM): 0.536
relative viability ([9]; first compound 0.6325 µM): 0.634
relative viability ([9]; first compound 2 µM): 0.532
relative viability ([10]; first compound 0.02 µM): 0.802
relative viability ([10]; first compound 0.2 µM): 0.505
relative viability ([10]; first compound 0.6325 µM): 0.437
relative viability ([10]; first compound 2 µM): 0.388
relative viability ([11]; first compound 0.02 µM): 0.703
relative viability ([11]; first compound 0.2 µM): 0.69
relative viability ([11]; first compound 0.6325 µM): 0.49
relative viability ([11]; first compound 2 µM): 0.299
relative viability ([12]; first compound 0.02 µM): 1.03
relative viability ([12]; first compound 0.2 µM): 1.02
relative viability ([12]; first compound 0.6325 µM): 1.01
relative viability ([12]; first compound 2 µM): 0.989
relative viability ([13]; first compound 0.02 µM): 0.796
relative viability ([13]; first compound 0.2 µM): 0.692
relative viability ([13]; first compound 0.6325 µM): 0.817
relative viability ([13]; first compound 2 µM): 0.706
relative viability ([14]; first compound 0.02 µM): 0.406
relative viability ([14]; first compound 0.2 µM): 0.344
relative viability ([14]; first compound 0.6325 µM): 0.44
relative viability ([14]; first compound 2 µM): 0.358
relative viability ([15]; first compound 0.02 µM): 0.687
relative viability ([15]; first compound 0.2 µM): 0.51
relative viability ([15]; first compound 0.6325 µM): 0.534
relative viability ([15]; first compound 2 µM): 0.578
relative viability ([16]; first compound 0.02 µM): 0.704
relative viability ([16]; first compound 0.6325 µM): 0.91
relative viability ([16]; first compound 2 µM): 0.38
relative viability ([17]; first compound 0.02 µM): 0.748
relative viability ([17]; first compound 0.2 µM): 0.625
relative viability ([17]; first compound 0.6325 µM): 0.671
relative viability ([17]; first compound 2 µM): 0.59
relative viability ([18]; first compound 0.02 µM): 0.68
relative viability ([18]; first compound 0.2 µM): 0.648
relative viability ([18]; first compound 0.6325 µM): 0.618
relative viability ([18]; first compound 2 µM): 0.658
relative viability ([19]; first compound 0.02 µM): 0.886
relative viability ([19]; first compound 0.2 µM): 0.924
relative viability ([19]; first compound 0.6325 µM): 0.923
relative viability ([19]; first compound 2 µM): 0.763
relative viability ([20]; first compound 0.02 µM): 0.66
relative viability ([20]; first compound 0.2 µM): 0.532
relative viability ([20]; first compound 0.6325 µM): 0.192
relative viability ([20]; first compound 2 µM): 0.16
relative viability ([21]; first compound 0.02 µM): 0.862
relative viability ([21]; first compound 0.2 µM): 0.711
relative viability ([21]; first compound 0.6325 µM): 0.73
relative viability ([21]; first compound 2 µM): 0.613
relative viability ([22]; first compound 0.02 µM): 0.796
relative viability ([22]; first compound 0.2 µM): 0.71
relative viability ([22]; first compound 0.6325 µM): 0.758
relative viability ([22]; first compound 2 µM): 0.807
relative viability ([23]; first compound 0.02 µM): 0.722
relative viability ([23]; first compound 0.2 µM): 0.696
relative viability ([23]; first compound 0.6325 µM): 0.974
relative viability ([23]; first compound 2 µM): 0.995
